According to ChEMBL document CHEMBL2029339, “Acylthiourea, acylurea, and acylguanidine derivatives with potent hedgehog inhibiting activity” (J Med Chem, 2012):
Active and inactive are the calls of the source. The calls are words filed in the database; no cut-off is given here.

Key:
C3H 10T1/2 [1] = experiment: Inhibition of SAG-induced differentiation of mouse mesenchymal pluripotent C3H10T1/2 cells to alkaline phosphatase positive oeseoblasts after 6 days; conditions: C3H 10T1/2, 6 days
C3H 10T1/2 [2] = experiment: Inhibition of SAG-induced differentiation of mouse mesenchymal pluripotent C3H10T1/2 cells to alkaline phosphatase positive oeseoblasts at 10 uM after 6 days; conditions: C3H 10T1/2, 6 days
[3] = target: Smoothened (Mus musculus) (UniProt P56726); experiment: Inhibition of Smo-mediated Hh signaling in mouse Shh-light2 cells at 3 uM by luciferase reporter gene assay; conditions: Shh Light II
Smoothened (Mus musculus), sequence (P56726 whole entry, looked up): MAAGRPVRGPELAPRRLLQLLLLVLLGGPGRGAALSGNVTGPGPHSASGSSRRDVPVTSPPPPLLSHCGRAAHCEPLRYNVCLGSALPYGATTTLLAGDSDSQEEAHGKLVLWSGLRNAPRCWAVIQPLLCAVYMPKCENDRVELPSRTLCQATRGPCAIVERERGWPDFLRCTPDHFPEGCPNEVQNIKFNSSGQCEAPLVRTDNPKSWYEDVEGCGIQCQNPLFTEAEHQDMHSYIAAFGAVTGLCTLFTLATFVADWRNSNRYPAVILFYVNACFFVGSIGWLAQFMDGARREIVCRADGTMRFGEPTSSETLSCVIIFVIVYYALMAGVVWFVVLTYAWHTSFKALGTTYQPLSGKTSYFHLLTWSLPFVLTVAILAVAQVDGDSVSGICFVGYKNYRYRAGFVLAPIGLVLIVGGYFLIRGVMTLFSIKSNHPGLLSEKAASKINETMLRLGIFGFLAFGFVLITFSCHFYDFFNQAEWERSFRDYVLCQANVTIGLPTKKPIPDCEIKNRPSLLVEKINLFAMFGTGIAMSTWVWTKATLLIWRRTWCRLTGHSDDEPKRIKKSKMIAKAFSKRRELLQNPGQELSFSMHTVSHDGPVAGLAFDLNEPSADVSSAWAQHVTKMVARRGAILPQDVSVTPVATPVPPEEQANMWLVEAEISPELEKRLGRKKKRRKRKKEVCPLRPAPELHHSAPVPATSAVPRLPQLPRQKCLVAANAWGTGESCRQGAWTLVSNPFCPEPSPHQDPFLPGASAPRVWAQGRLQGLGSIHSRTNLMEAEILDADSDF

[4] = target: Smoothened (Mus musculus) (UniProt P56726); experiment: Inhibition of Smo-mediated Hh signaling in mouse Shh-light2 cells by luciferase reporter gene assay
[5] = target: Smoothened (Mus musculus) (UniProt P56726); experiment: Inhibition of Smo-mediated Hh signaling in mouse Shh-light2 cells at 0.3 uM by luciferase reporter gene assay; conditions: Shh Light II

COc1cc(C(=O)NC(=S)Nc2cccc(NC(=O)c3ccccc3Cl)c2)cc(OC)c1OC
IC50 (C3H 10T1/2 [1]): 2500 nM | inhibition at 10 µM (C3H 10T1/2 [2]): 80% | inhibition [3]: 66%

COc1cc(C(=O)NC(=S)Nc2cccc(NC(=O)c3ccco3)c2)cc(OC)c1OC
inhibition at 10 µM (C3H 10T1/2 [2]): 67% | inhibition [3]: 53%

COc1cc(C(=O)NC(=S)Nc2cccc(NC(=O)c3ccccc3)c2)cc2c1OCO2
IC50 (C3H 10T1/2 [1]): 1100 nM | inhibition [3]: 92%

COc1cc(C(=O)NC(=S)Nc2cccc(NC(=O)c3ccncc3)c2)cc(OC)c1OC
inhibition at 10 µM (C3H 10T1/2 [2]): 82% | inhibition [3]: 67%

COc1cc(C(=O)NC(=N)Nc2cccc(NC(=O)c3ccc(-c4ccc(F)cc4)cc3)c2)cc(OC)c1OC
IC50 (C3H 10T1/2 [1]): 30 nM | IC50 [4]: 33 nM

COc1cc(C(=O)NC(=S)Nc2cccc(-c3cn4ccsc4n3)c2)cc(OC)c1OC
inhibition at 10 µM (C3H 10T1/2 [2]): 98% | inhibition [3]: 92% | IC50 [4]: 1100 nM

CCOc1cc(C(=O)NC(=O)Nc2cccc(NC(=O)c3ccccc3)c2)cc(OCC)c1OCC
inhibition at 10 µM (C3H 10T1/2 [2]): 45% | inhibition [3]: 24% | inhibition [5]: 13%

COc1cc(C(=O)NC(=S)Nc2cccc(-c3cn4ccccc4n3)c2)cc(OC)c1OC
IC50 (C3H 10T1/2 [1]): 550 nM | inhibition at 10 µM (C3H 10T1/2 [2]): 94% | inhibition [3]: 93% | IC50 [4]: 820 nM

COc1cc(C(=O)NC(=S)Nc2cccc(NC(=O)c3ccc(-c4ccccc4)cc3)c2)cc(OC)c1OC
IC50 (C3H 10T1/2 [1]): 80 nM | inhibition at 10 µM (C3H 10T1/2 [2]): 62% | inhibition [3]: 89% | IC50 [4]: 90 nM

COc1cc(C(=O)NC(=S)Nc2cccc(NC(=O)c3ccc(-c4ccccc4)cc3)c2C)cc(OC)c1OC
inhibition at 10 µM (C3H 10T1/2 [2]): 7% | inhibition [3]: 48% | inhibition [5]: 9%

COc1ccc(C(=O)Nc2cccc(NC(=S)NC(=O)c3cc(OC)c(OC)c(OC)c3)c2)cc1
IC50 (C3H 10T1/2 [1]): 1600 nM | inhibition at 10 µM (C3H 10T1/2 [2]): 85% | inhibition [3]: 93%

COc1cc(C(=O)NC(=N)Nc2ccc(Cl)c(NC(=O)c3ccccc3)c2)cc(OC)c1OC
IC50 (C3H 10T1/2 [1]): 370 nM | IC50 [4]: 370 nM

COc1cc(C(=O)NC(=S)Nc2cccc(NC(=O)c3ccc(Cl)cc3)c2)cc(OC)c1OC
IC50 (C3H 10T1/2 [1]): 800 nM | inhibition at 10 µM (C3H 10T1/2 [2]): 96% | inhibition [3]: 99%

COc1cc(C(=O)NC(=N)Nc2cccc(-n3ccc4ccccc43)c2)cc(OC)c1OC
IC50 (C3H 10T1/2 [1]): 390 nM | IC50 [4]: 900 nM

COc1cc(C(=O)NC(=N)Nc2ccc(C)c(NC(=O)c3ccc(-c4ccc(F)cc4)cc3)c2)cc(OC)c1OC
IC50 (C3H 10T1/2 [1]): 11 nM | IC50 [4]: 14 nM

COc1cc(C(=O)NC(=S)Nc2cccc(-n3ccc4ccccc43)c2)cc(OC)c1OC
inhibition at 10 µM (C3H 10T1/2 [2]): 92% | inhibition [3]: 69%

COc1cc(C(=O)NC(=S)Nc2ccc(F)c(NC(=O)c3ccccc3)c2)cc(OC)c1OC
inhibition at 10 µM (C3H 10T1/2 [2]): 96% | inhibition [3]: 98% | inhibition [5]: 21%

COc1cc(C(=O)NC(=S)Nc2cccc(NC(=O)Nc3ccc(-c4ccccc4)cc3)c2)cc(OC)c1OC
inhibition at 10 µM (C3H 10T1/2 [2]): 91% | inhibition [3]: 71%

CCOc1cc(C(=O)NC(=S)Nc2cccc(NC(=O)c3ccccc3)c2)cc(OCC)c1OCC
IC50 (C3H 10T1/2 [1]): 800 nM | inhibition [3]: 100%

COc1cc(C(=O)NC(=S)Nc2cccc(NC(=O)c3ccc4ccccc4c3)c2)cc(OC)c1OC
inhibition at 10 µM (C3H 10T1/2 [2]): 59% | inhibition [3]: 24%

COc1ccc(C(=O)NC(=S)Nc2cccc(NC(=O)c3ccccc3)c2)cc1OC
inhibition at 10 µM (C3H 10T1/2 [2]): 45% | inhibition [3]: 71%

COc1cc(C(=O)NC(=O)Nc2cccc(NC(=O)c3ccc(-c4ccccc4)cc3)c2C)cc(OC)c1OC
inhibition at 10 µM (C3H 10T1/2 [2]): 104% | inhibition [3]: 99% | inhibition [5]: 26%

COc1cc(C(=O)NC(=O)Nc2cccc(NC(=O)c3ccc(Cl)cc3)c2)cc(OC)c1OC
inhibition at 10 µM (C3H 10T1/2 [2]): 95% | inhibition [3]: 96% | inhibition [5]: 6%

COc1cc(C(=O)NC(=N)Nc2ccc(C)c(C(=O)Nc3ccccc3)c2)cc(OC)c1OC
IC50 (C3H 10T1/2 [1]): 200 nM | IC50 [4]: 190 nM

COc1cc(C(=O)NC(=N)Nc2cccc(-c3cc4ccccc4[nH]3)c2)cc(OC)c1OC
IC50 (C3H 10T1/2 [1]): 180 nM | IC50 [4]: 70 nM

O=C(NC(=S)Nc1cccc(NC(=O)c2ccccc2)c1)c1ccc2c(c1)OCCO2
inhibition [3]: inactive

COc1ccc(C(=O)NC(=S)Nc2cccc(NC(=O)c3ccccc3)c2)c(OC)c1
IC50 (C3H 10T1/2 [1]): 4100 nM | inhibition [3]: 34%

COc1cc(C(=O)NC(=O)Nc2cccc(NC(=O)c3ccc4ccccc4c3)c2)cc(OC)c1OC
inhibition at 10 µM (C3H 10T1/2 [2]): 4% | inhibition [3]: 3% | inhibition [5]: 1%

COc1cc(C(=O)NC(=N)Nc2ccc(Cl)c(NC(=O)c3ccc(-c4ccccc4)cc3)c2)cc(OC)c1OC
IC50 (C3H 10T1/2 [1]): 130 nM | IC50 [4]: 70 nM

CCOc1c(OC)cc(C(=O)NC(=S)Nc2cccc(NC(=O)c3ccccc3)c2)cc1OC
IC50 (C3H 10T1/2 [1]): 600 nM | inhibition [3]: 99%

COc1cc(C(=O)NC(=S)Nc2ccc(C)c(NC(=O)c3cccc(-c4ccccc4)c3)c2)cc(OC)c1OC
IC50 (C3H 10T1/2 [1]): 600 nM | inhibition at 10 µM (C3H 10T1/2 [2]): 97% | inhibition [3]: 100% | inhibition [5]: 72%

COc1cc(C(=O)NC(=S)Nc2ccc(C)c(NC(=O)c3ccccc3)c2)cc(OC)c1OC
IC50 (C3H 10T1/2 [1]): 900 nM | inhibition at 10 µM (C3H 10T1/2 [2]): 99% | inhibition [3]: 100% | inhibition [5]: 60%

COc1ccc(NC(=O)c2cc(NC(=S)NC(=O)c3cc(OC)c(OC)c(OC)c3)ccc2Cl)cc1
inhibition at 10 µM (C3H 10T1/2 [2]): 88% | inhibition [3]: 100% | inhibition [5]: 10%

COc1cccc(C(=O)Nc2cccc(NC(=S)NC(=O)c3cc(OC)c(OC)c(OC)c3)c2)c1
IC50 (C3H 10T1/2 [1]): 2000 nM | inhibition at 10 µM (C3H 10T1/2 [2]): 89% | inhibition [3]: 99%

COc1cc(C(=O)NC(=S)Nc2ccc(Cl)c(C(=O)Nc3ccc(Cl)cc3)c2)cc(OC)c1OC
inhibition at 10 µM (C3H 10T1/2 [2]): 96% | inhibition [3]: 98% | inhibition [5]: 7%

COc1ccc(NC(=S)NC(=O)c2cc(OC)c(OC)c(OC)c2)cc1NC(=O)c1ccccc1
inhibition at 10 µM (C3H 10T1/2 [2]): 8% | inhibition [3]: 33% | inhibition [5]: 1%

COc1ccc(C(=O)Nc2cccc(NC(=O)NC(=O)c3cc(OC)c(OC)c(OC)c3)c2)cc1
inhibition at 10 µM (C3H 10T1/2 [2]): 99% | inhibition [3]: 103% | inhibition [5]: 40%

COc1cc(OC)cc(C(=O)NC(=S)Nc2cccc(NC(=O)c3ccccc3)c2)c1
IC50 (C3H 10T1/2 [1]): 1900 nM | inhibition [3]: 84%

COc1cc(C(=O)NC(=S)Nc2cccc(NC(=O)c3cccs3)c2)cc(OC)c1OC
inhibition at 10 µM (C3H 10T1/2 [2]): 60% | inhibition [3]: 13%

COc1cc(C(=O)NC(=S)Nc2cccc(NC(=O)C3CCCCC3)c2)cc(OC)c1OC
inhibition at 10 µM (C3H 10T1/2 [2]): 26% | inhibition [3]: 14%

COc1cc(C(=O)NC(=S)Nc2cccc(NC(=O)Nc3ccccc3)c2)cc(OC)c1OC
inhibition at 10 µM (C3H 10T1/2 [2]): 104% | inhibition [3]: 78%

COc1cc(C(=O)NC(=S)Nc2cccc(-n3cnc4ccccc43)c2)cc(OC)c1OC
inhibition at 10 µM (C3H 10T1/2 [2]): 60% | inhibition [3]: 84%

COc1cc(C(=O)NC(=S)Nc2cccc(NC(=O)C(C)C)c2)cc(OC)c1OC
inhibition at 10 µM (C3H 10T1/2 [2]): 6% | inhibition [3]: 6%

COc1cc(C(=O)NC(=N)Nc2ccc(Cl)c(C(=O)Nc3ccccc3)c2)cc(OC)c1OC
IC50 (C3H 10T1/2 [1]): 440 nM | IC50 [4]: 160 nM

COc1cc(C(=O)NC(=S)Nc2ccc(Cl)c(C(=O)Nc3ccc(N(C)C)cc3)c2)cc(OC)c1OC
inhibition at 10 µM (C3H 10T1/2 [2]): 98% | inhibition [3]: 99% | inhibition [5]: 4%

COc1cc(C(=O)NC(=N)Nc2ccc(C)c(NC(=O)c3ccccc3)c2)cc(OC)c1OC
IC50 (C3H 10T1/2 [1]): 180 nM | inhibition [5]: 88%

COc1cc(C(=O)NC(=O)Nc2cccc(NC(=O)C(C)C)c2)cc(OC)c1OC
inhibition at 10 µM (C3H 10T1/2 [2]): 99% | inhibition [3]: 62% | inhibition [5]: 4%

COc1cc(C(=O)NC(=S)Nc2cc(NC(=O)c3ccccc3)ccc2F)cc(OC)c1OC
inhibition at 10 µM (C3H 10T1/2 [2]): 97% | inhibition [3]: 92% | inhibition [5]: 4%

CCOc1cc(C(=O)NC(=S)Nc2cccc(NC(=O)c3ccccc3)c2)cc(OC)c1OCC
IC50 (C3H 10T1/2 [1]): 800 nM | inhibition [3]: 100%

COc1cc(C(=O)NC(=S)Nc2cccc(NC(=O)c3ccc(N4CCOCC4)cc3)c2)cc(OC)c1OC
inhibition at 10 µM (C3H 10T1/2 [2]): 55% | inhibition [3]: 90%

COc1cc(C(=O)NC(=S)Nc2cccc(NC(=O)c3cc(OC)c(OC)c(OC)c3)c2)cc(OC)c1OC
inhibition at 10 µM (C3H 10T1/2 [2]): 74% | inhibition [3]: 37%

COc1cc(C(=O)NC(=N)Nc2cccc(NC(=O)c3ccc(N4CCOCC4)cc3)c2)cc(OC)c1OC
IC50 (C3H 10T1/2 [1]): 200 nM | IC50 [4]: 220 nM

COc1cc(C(=O)NC(=N)Nc2ccc(C)c(NC(=O)c3cccc(-c4ccccc4)c3)c2)cc(OC)c1OC
IC50 (C3H 10T1/2 [1]): 260 nM | IC50 [4]: 110 nM

COc1cc(C(=O)NC(=S)Nc2cccc(NC(=O)c3ccccc3)c2C)cc(OC)c1OC
inhibition at 10 µM (C3H 10T1/2 [2]): 44% | inhibition [3]: 54% | inhibition [5]: 2%

COc1cc(C(=O)NC(=S)Nc2cccc(-c3cc4ccccc4[nH]3)c2)cc(OC)c1OC
IC50 (C3H 10T1/2 [1]): 280 nM | inhibition at 10 µM (C3H 10T1/2 [2]): 102% | inhibition [3]: 90% | IC50 [4]: 180 nM

COc1ccccc1C(=O)Nc1cccc(NC(=S)NC(=O)c2cc(OC)c(OC)c(OC)c2)c1
IC50 (C3H 10T1/2 [1]): 2000 nM | inhibition at 10 µM (C3H 10T1/2 [2]): 99% | inhibition [3]: 49%

COc1cc(C(=O)NC(=S)Nc2ccc(C)c(NC(=O)c3ccc(Oc4ccccc4)cc3)c2)cc(OC)c1OC
IC50 (C3H 10T1/2 [1]): 500 nM | inhibition at 10 µM (C3H 10T1/2 [2]): 99% | inhibition [3]: 97% | inhibition [5]: 59%

COc1cc(C(=O)NC(=S)Nc2cccc(NC(=O)c3ccc(-c4ccc(F)cc4)cc3)c2)cc(OC)c1OC
IC50 (C3H 10T1/2 [1]): 140 nM | inhibition at 10 µM (C3H 10T1/2 [2]): 95% | inhibition [3]: 97% | IC50 [4]: 100 nM

COc1cc(C(=O)NC(=O)Nc2cccc(NC(=O)c3ccccc3)c2)cc2c1OCO2
inhibition at 10 µM (C3H 10T1/2 [2]): 32% | inhibition [3]: 2% | inhibition [5]: 1%

COc1cc(C(=O)NC(=S)Nc2cccc(NC(=O)c3cccc4ccccc34)c2)cc(OC)c1OC
inhibition at 10 µM (C3H 10T1/2 [2]): 63% | inhibition [3]: 64%
